Consider three compounds from ChEMBL document CHEMBL1149122 (J Med Chem, 2004).

The target in test [1] is T1, Amine oxidase [flavin-containing] B (Homo sapiens, UniProt P27338).
T1 sequence (P27338 whole entry): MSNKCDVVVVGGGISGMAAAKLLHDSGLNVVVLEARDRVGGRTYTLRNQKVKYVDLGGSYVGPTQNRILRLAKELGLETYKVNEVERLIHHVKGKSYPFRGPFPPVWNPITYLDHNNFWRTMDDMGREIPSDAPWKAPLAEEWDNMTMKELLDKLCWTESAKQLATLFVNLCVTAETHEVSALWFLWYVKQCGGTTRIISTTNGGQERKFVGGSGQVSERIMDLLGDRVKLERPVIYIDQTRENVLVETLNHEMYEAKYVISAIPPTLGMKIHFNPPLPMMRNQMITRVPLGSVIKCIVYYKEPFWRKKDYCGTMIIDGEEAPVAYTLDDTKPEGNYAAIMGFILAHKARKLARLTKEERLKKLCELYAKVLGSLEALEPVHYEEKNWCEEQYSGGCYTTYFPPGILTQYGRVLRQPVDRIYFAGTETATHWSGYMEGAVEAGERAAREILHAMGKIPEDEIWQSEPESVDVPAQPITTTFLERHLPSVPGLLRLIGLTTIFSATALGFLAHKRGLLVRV
The test can be described thus: Binding affinity towards monoamine oxidase B activity was measured using a benzylamine assay.

Test [2] has as its target T2, Amine oxidase [flavin-containing] A (Homo sapiens, UniProt P21397).
T2 sequence (P21397 whole entry): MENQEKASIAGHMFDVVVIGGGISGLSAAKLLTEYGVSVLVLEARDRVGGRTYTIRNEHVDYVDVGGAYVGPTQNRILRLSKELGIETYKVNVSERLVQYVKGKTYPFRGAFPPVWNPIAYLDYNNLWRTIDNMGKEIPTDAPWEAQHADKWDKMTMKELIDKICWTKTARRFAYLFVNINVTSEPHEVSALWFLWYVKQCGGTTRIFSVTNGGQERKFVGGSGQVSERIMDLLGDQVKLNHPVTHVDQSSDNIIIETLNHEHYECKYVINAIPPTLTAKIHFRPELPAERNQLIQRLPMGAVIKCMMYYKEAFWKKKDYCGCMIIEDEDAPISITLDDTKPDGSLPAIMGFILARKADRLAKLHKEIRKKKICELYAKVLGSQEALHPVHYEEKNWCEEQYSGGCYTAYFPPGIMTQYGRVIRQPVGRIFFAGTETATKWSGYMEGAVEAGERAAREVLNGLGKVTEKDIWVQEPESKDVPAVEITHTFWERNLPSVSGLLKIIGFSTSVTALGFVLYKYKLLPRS
The test can be described thus: Binding affinity towards monoamine oxidase A activity was measured using a kynuramine assay.

Test [3] has as its target T3, Amine oxidase [flavin-containing] B (Rattus norvegicus, UniProt P19643).
T3 sequence (P19643 whole entry): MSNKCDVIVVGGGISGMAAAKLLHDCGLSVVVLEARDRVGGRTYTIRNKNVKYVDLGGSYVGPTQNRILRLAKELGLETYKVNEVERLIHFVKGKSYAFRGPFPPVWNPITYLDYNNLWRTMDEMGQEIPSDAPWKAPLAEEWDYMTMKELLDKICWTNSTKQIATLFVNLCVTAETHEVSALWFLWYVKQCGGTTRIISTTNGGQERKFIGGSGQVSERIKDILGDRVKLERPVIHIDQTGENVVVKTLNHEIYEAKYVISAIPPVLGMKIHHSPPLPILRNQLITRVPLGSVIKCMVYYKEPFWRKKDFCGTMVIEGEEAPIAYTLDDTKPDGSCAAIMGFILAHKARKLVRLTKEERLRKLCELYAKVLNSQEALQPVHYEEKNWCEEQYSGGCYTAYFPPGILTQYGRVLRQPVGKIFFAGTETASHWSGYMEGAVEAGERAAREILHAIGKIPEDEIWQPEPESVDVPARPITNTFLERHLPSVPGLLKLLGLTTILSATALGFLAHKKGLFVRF
The test can be described thus: Inhibitory concentration towards monoamine oxidase B in rat brain was measured. The format is tissue-based.

Test [4] has as its target T4, Amine oxidase [flavin-containing] A (Rattus norvegicus, UniProt P21396).
T4 sequence (P21396 whole entry): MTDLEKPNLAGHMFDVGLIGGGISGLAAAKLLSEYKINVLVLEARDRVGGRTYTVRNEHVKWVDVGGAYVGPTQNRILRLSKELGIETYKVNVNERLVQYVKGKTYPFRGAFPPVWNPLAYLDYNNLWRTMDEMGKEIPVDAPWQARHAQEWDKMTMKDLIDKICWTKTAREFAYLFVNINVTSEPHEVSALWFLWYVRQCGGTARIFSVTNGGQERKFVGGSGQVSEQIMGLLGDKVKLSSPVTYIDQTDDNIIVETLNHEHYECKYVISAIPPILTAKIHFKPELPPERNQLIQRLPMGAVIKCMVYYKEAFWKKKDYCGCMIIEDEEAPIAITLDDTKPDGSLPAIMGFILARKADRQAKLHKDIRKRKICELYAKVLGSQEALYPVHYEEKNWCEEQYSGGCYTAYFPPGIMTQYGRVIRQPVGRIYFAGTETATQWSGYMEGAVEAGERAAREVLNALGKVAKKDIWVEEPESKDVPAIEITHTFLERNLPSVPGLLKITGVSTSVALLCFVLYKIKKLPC
Put plainly: Inhibitory concentration towards monoamine oxidase A in rat brain was measured. The format is tissue-based.

As usually defined, the Ki is the equilibrium dissociation constant of an inhibitor or competing ligand from its target. With `C#CCN[C@@H]1CCc2ccc(O)cc21`, the Ki is 17 µM in test [1] and 1.9 µM in test [2].

For `C#CCN(C)[C@@H]1CCc2ccccc21`, the Ki in test [1] was 0.6 µM; in test [2] it was 4.9 µM.

As a reminder, the IC50 is the concentration needed to halve the response being measured. Read a low IC50 as inhibition by little substance. With `C#CCN[C@@H]1CCc2ccc(OC(=O)N(C)CC)cc21` [LADOSTIGIL], the inhibitory constant (Ki) in test [1] turned out to be 213 µM; in test [2], 227 µM. Moreover, the concentration for half-maximal inhibition (IC50) was found to be 120 µM in test [3] and 85 µM in test [4].
